Here are results for 4 compounds from patent US6673607B2, “Microinjection of cryoprotectants for preservation of cells” (priority 2000, dated 2004).

For series [1] the following is noted: cited from earlier work; for Tg′: α-(1→4)-linked glucose hexamers, Levine and Slade; for temperature at which Tm and Tg curves cross (Tg′): phase diagram, FIG. 6.
In series [2] the test system is metaphase II mouse oocytes. Briefly: survival of cooled oocytes after overnight culture in modified HTF media, isotonic (live/dead assay). The format is cell-based. Conditions: 0.50 M extracellular trehalose only; very slow cooling to −60° C. As to the method:
(§1) Once the cell is prepared for storage, it is stored in a manner appropriate to its preparation. Frozen cells can be stored at cryogenic temperatures and dried cells can be dry stored at ambient or other temperatures as appropriate. Recovery of stored cells is geared to the method of their preparation for storage. Dried cells are rehydrated, and frozen cells are thawed. Preferably, at least 25, 35, 50, 60, 70, 80, 90, 95, or 100% of the recovered cells are viable. Cell viability may be measured using any standard assay, such as a “live/dead” assay using the green dye calcein-AM to indicate viable cells and the red dye ethidium homodimer to indicate dead cells, according to the manufacturer's protocol (Molecular Probes, Inc.). In another preferred embodiment, at least 5, 10, 15, 25, 35, 50, 60, 70, 80, 90, or 95% of the recovered oocytes may be fertilized using standard in vitro fertilization techniques (see, for example, Summers et al., Biol. Reprod. 53:431-437, 1995). Preferably, the fertilized oocytes develop into 2-cell stage embryos, 4-cell stage embryos, morula-stage embryos, blastocyst-stage embryos, fetal-stage embryos, or viable offspring.
Cell survival was measured using the live/dead assay. […] In FIG. 10, oocytes were cooled at a very slow cooling rate to an intermediate temperature (−60° C.). […]

Series [3] has as its system metaphase II mouse oocytes. Nature of the series: survival of cooled oocytes after overnight culture in modified HTF, hypertonic media (live/dead assay). The format is cell-based. As to the method: as §1
FIGS. 9A and 9B are a set of graphs showing the survival of cooled metaphase II mouse oocytes after overnight culture in modified HTF, hypertonic media as a function of extracellular trehalose concentration at −15° and −30°, respectively. These experiments were performed using a cooling rate of 1° C./min, with or without approximately 0.10 to 0.15 M intracellular trehalose. Cell viability was assessed using the live/dead assay described herein. […] As the extracellular amount of trehalose in the freezing solution was increased from 0.15 M (approximately the same amount as the intracellular trehalose) to 0.30 M or 0.50 M, the survival rate improved from about 18, to 55 or 85%, respectively.

Series [4] relates to metaphase II mouse oocytes. Nature of the series: fertilization and blastocyst development of fresh oocytes cultured in modified HTF media. Type of series: cell-based. As to the method:
Thus, a hypertonic media for the culturing of certain recovered cells was developed using a two-prong approach. First, a standard culture medium called HTF (human tubal fluid medium) was modified to minimize the concentration of electrolytes (see FIG. 7, components marked with down arrows) and to increase other nutrients and amino acids (see FIG. 7, components marked with up arrows). The osmolarity of this medium was determined using an osmometer. Because the osmolarity of this medium was approximately 285 mosm, which is close to the normal internal osmolarity of cells, this medium is called modified HTF, isotonic. Second, the water content of the medium was reduced to equally increase the concentrations of each component to achieve a final osmolarity of 320 mosm. This medium is called modified HTF, hypertonic, (see FIG. 7, last column).
To test the ability of modified HTF, isotonic and hypertonic media to support the fertilization and development of oocytes, these medias were used to culture fresh mouse metaphase II oocytes that had not been cyropreserved. […] If desired, the composition and hypertonicity of the culture medium may be further optimized to increase the number of blastocysts or viable offspring that are formed. For example, a culture medium having a higher osmolarity (such as 330, 340, 350, 360, 370, or 380 mosm) may better mimic oviductal fluid (which may have an osmolarity of at least 360 mosm) and thus further promote development of viable offspring (Van Winkle et al., J. Expt Zool. 253:215-219, 1990). Any other suitable hypertonic media with a osmolarity of at least 300, 310, 320, 330, 340, 350, 360, 370, 380, or more mosm may be used in preferred methods for culturing cells in vitro. These methods may be used to culture cells with or without intracellular sugar. These preferred medias may also be used before, during, or after storage of cryopreserved cells.

Series [5] concerns oocytes. Briefly: cryomicroscopy: cumulative incidence of intracellular ice during cooling. Type of series: cell-based. Conditions: cooling 3.5° C./min. As to the method:
FIG. 13 is a graph with a set of curves showing the percentage of oocytes that have intracellular ice at various temperatures. For this assay, standard cryomicroscopy procedures were used to cool oocytes at a rate of 3.5° C./min (Cosman et al., Cryo-Letters 10:17-38, 1989). The oocytes were observed using a cryomicroscope to determine whether intracellular ice had formed. The presence of intracellular ice was easily detected based on the black color that appeared due to the light scattered by the ice crystals. This assay was used to test control oocytes incubated in isotonic media alone, oocytes incubated in media with 0.1 M extracellular trehalose, and oocytes injected with 0.1 M trehalose and incubated in media with 0.1 M extracellular trehalose. […] In the field of cryobiology, it has been established that the faster the cooling rate without formation of lethal intracellular ice, the greater the chance of cell survival.

Where [6] appears, read: oocytes injected with 0.07 M trehalose, modified HTF, hypertonic media.

On to cyclodextrin, for which, in series [1], the “Tg′” value is −9 °C.

Turning to maltohexaose, in series [1], the “Tg′” value was −14.5 °C.

Turning to `OC[C@H]1O[C@H](O[C@H]2O[C@H](CO)[C@@H](O)[C@H](O)[C@H]2O)[C@H](O)[C@@H](O)[C@@H]1O` [trehalose], the “temperature at which Tm and Tg curves cross (Tg′)” value in series [1] is “approximately −30 °C”. Moreover, the survival rate result in series [2] was “some improvement over the control”; in series [3] (0.15 M extracellular trehalose in freezing solution, with approximately 0.10 to 0.15 M intracellular trehalose, cooling 1° C./min), “about 18%”; in series [3] (0.30 M extracellular trehalose in freezing solution, with approximately 0.10 to 0.15 M intracellular trehalose, cooling 1° C./min), ~55%; in series [3] (0.50 M extracellular trehalose in freezing solution, with approximately 0.10 to 0.15 M intracellular trehalose, cooling 1° C./min), ~85%; in series [3] (cooled to −15° C. at 1° C./min, approximately 0.10 to 0.15 M intracellular trehalose versus none), “dramatically increased”; in series [3] (cooled to −30° C. at 1° C./min, approximately 0.10 to 0.15 M intracellular trehalose versus none), “dramatically increased”. In addition, in series [4] (intracellular trehalose 0.15 M), the “frequency of blastocyst formation” value is on record as “reduced, but still significant”. Also, the frequency of fertilization entry was “reduced, but still significant” in series [4] (intracellular trehalose 0.15 M) and “high frequency” in series [4] (setting [6]). For the same compound, the “frequency of blastocyst development” value in series [4] (setting [6]) was “high frequency”. Moreover, the “incidence of intracellular ice formation” value in series [5] (0.1 M extracellular trehalose versus isotonic media alone) was “reduced”. Moreover, the “frequency of intracellular ice” value in series [5] (0.1 M injected trehalose plus 0.1 M extracellular trehalose) was “further reduced”.

Take `C[S+](C)[O-]` [DMSO, dimethyl sulfoxide]: the “temperature at which Tm and Tg curves cross (Tg′)” value in series [1] is “approximately −80 °C”.
